{"source": "patent US4370489A", "about": "“Herbicidal compounds” (Hoechst Aktiengesellschaft, priority 1976, dated 1983)", "key": {"Alopecurus": {"test_system": "Alopecurus", "experiment": "Post-emergence greenhouse pot trial, annual blackgrass (Example I, Table I)", "type": "in vivo, annual blackgrass (Alopecurus)", "conditions": "greenhouse pots, 4 weeks", "protocol": "(§1) Seeds of weed grasses were sown in pots filled with loamy soil and placed in the greenhouse for germination and emergence. As soon as the plants had developed 3 or 4 leaves, they were sprayed with wettable powder formulations, suspended in water, of compounds according to the invention.\n(§2) The results and also the results of all following examples were evaluated 4 weeks later according to the following scheme:\n(§3) 4 is still considered an acceptable herbicidal effect in weeds and a satisfactory preserving effect in crop plants (cf. Bolle, Nachrichtenblatt des Deutschen Pflanzenschutzdienstes 16, 1964, pages 92-94).\n(§4) Effect on weed grasses in a post-emergence trial in pots\n(§5) in the greenhouse (Evaluation scheme)"}, "Digitaria": {"test_system": "Digitaria", "experiment": "Post-emergence greenhouse pot trial, Digitaria (Example I, Table I)", "type": "in vivo", "conditions": "greenhouse pots, 4 weeks", "protocol": "as §1, §2, §3, §4, §5"}, "Echinochloa": {"test_system": "Echinochloa", "experiment": "Post-emergence greenhouse pot trial, Echinochloa (Example I, Table I)", "type": "in vivo", "conditions": "greenhouse pots, 4 weeks", "protocol": "as §1, §2, §3, §4, §5"}, "Setaria": {"test_system": "Setaria", "experiment": "Post-emergence greenhouse pot trial, Setaria (Example I, Table I)", "type": "in vivo", "conditions": "greenhouse pots, 4 weeks", "protocol": "as §1, §2, §3, §4, §5"}, "Lolium": {"test_system": "Lolium", "experiment": "Post-emergence greenhouse pot trial, Lolium (Example I, Table I)", "type": "in vivo", "conditions": "greenhouse pots, 4 weeks", "protocol": "as §1, §2, §3, §4, §5"}, "weed grasses": {"test_system": "weed grasses", "experiment": "Pre-emergence greenhouse pot trial, weed grasses overall (Example V)", "type": "in vivo", "conditions": "in words", "protocol": "as §2\nIn a greenhouse the compounds to be tested were sprayed on the surface of the soil directly after sowing. […] Dicotyledonous crop plants (the same as used in Example I) were not damaged by the applied amounts.\nEffect on weed grasses in a pre-emergence process (evalua-\ntion scheme) experiment in pots in the greenhouse."}, "wild oat": {"test_system": "wild oat", "experiment": "Post-emergence trial in the greenhouse, wild oat (Example VII, Table VII)", "type": "in vivo", "conditions": "31 kg/hectare, emulsion concentrate, 4 weeks after treatment", "protocol": "as §2\nIn a greenhouse some of the compounds of the invention were sprayed on plants of wild oat, the compounds being used as emulsion concentrates.\n(§6) Post-emergence trial in the greenhouse\nEffect on wild oat 4 weeks after treatment\nDose 31 kg/hectare of active compound (as emulsion"}, "barnyard grass": {"test_system": "barnyard grass", "experiment": "Post-emergence trial in the greenhouse, barnyard grass (Example VIII, Table VIII)", "type": "in vivo", "conditions": "31 kg/hectare, wettable powder, 4 weeks after treatment, 3 to 4 leaf-stage", "protocol": "as §2\nIn a similar trial some of the compounds of the invention were sprayed in the form of wettable powder formulations on barnyard grass in the 3 to 4 leaf-stage.\nas §6\nEffect on barnyard grass 4 weeks after treatment\nDose 31 kg/hectare of active compound (as wettable"}}}
{"smiles": "CCOC(=O)C(C)Oc1ccc(Oc2ccc(Br)cc2Cl)cc1", "note": "(stereo not drawn) [Compound 1b, 4-(2'-chloro-4'-bromophenoxy)-α-phenoxy-propionic acid ethyl ester]", "values": [{"measurement": "Effect on weed grasses (evaluation scheme number), Alopecurus", "setting": "Alopecurus; 0.15 kg/hectare", "result": "6 (75.0 to <85.0)"}, {"measurement": "Effect on weed grasses (evaluation scheme number), Alopecurus", "setting": "Alopecurus; 0.62 kg/hectare", "result": "1 (100)"}, {"measurement": "Effect on weed grasses (evaluation scheme number), Alopecurus", "setting": "Alopecurus; 2.5 kg/hectare", "result": "1 (100)"}, {"measurement": "Effect on weed grasses (evaluation scheme number), Digitaria", "setting": "Digitaria; 0.15 kg/hectare", "result": "7 (65.0 to <75.0)"}, {"measurement": "Effect on weed grasses (evaluation scheme number), Digitaria", "setting": "Digitaria; 0.62 kg/hectare", "result": "1 (100)"}, {"measurement": "Effect on weed grasses (evaluation scheme number), Digitaria", "setting": "Digitaria; 2.5 kg/hectare", "result": "1 (100)"}, {"measurement": "Effect on weed grasses (evaluation scheme number), Echinochloa", "setting": "Echinochloa; 0.15 kg/hectare", "result": "1 (100)"}, {"measurement": "Effect on weed grasses (evaluation scheme number), Echinochloa", "setting": "Echinochloa; 0.62 kg/hectare", "result": "1 (100)"}, {"measurement": "Effect on weed grasses (evaluation scheme number), Echinochloa", "setting": "Echinochloa; 2.5 kg/hectare", "result": "1 (100)"}, {"measurement": "Effect on weed grasses (evaluation scheme number), Setaria", "setting": "Setaria; 0.15 kg/hectare", "result": "1 (100)"}, {"measurement": "Effect on weed grasses (evaluation scheme number), Setaria", "setting": "Setaria; 0.62 kg/hectare", "result": "1 (100)"}, {"measurement": "Effect on weed grasses (evaluation scheme number), Setaria", "setting": "Setaria; 2.5 kg/hectare", "result": "1 (100)"}, {"measurement": "Effect on weed grasses (evaluation scheme number), Lolium", "setting": "Lolium; 0.15 kg/hectare", "result": "6 (75.0 to <85.0)"}, {"measurement": "Effect on weed grasses (evaluation scheme number), Lolium", "setting": "Lolium; 0.62 kg/hectare", "result": "2 (97.5 to <100)"}, {"measurement": "Effect on weed grasses (evaluation scheme number), Lolium", "setting": "Lolium; 2.5 kg/hectare", "result": "1 (100)"}, {"measurement": "effect in pre-emergence treatment compared with comparative compound A", "setting": "weed grasses", "result": "Analogous results"}, {"measurement": "effect (number) on wild oat", "setting": "wild oat", "result": "1 (100)"}]}
{"smiles": "CC(C)OC(=O)C(C)Oc1ccc(Oc2ccc(Br)cc2Cl)cc1", "note": "(stereo not drawn) [Compound 1c, 4-(2'-chloro-4'-bromophenoxy)-α-phenoxy-propionic acid isopropyl ester]", "values": [{"measurement": "Effect on weed grasses (evaluation scheme number), Alopecurus", "setting": "Alopecurus; 0.15 kg/hectare", "result": "6 (75.0 to <85.0)"}, {"measurement": "Effect on weed grasses (evaluation scheme number), Alopecurus", "setting": "Alopecurus; 0.62 kg/hectare", "result": "3 (95.0 to <.97.5)"}, {"measurement": "Effect on weed grasses (evaluation scheme number), Alopecurus", "setting": "Alopecurus; 2.5 kg/hectare", "result": "1 (100)"}, {"measurement": "Effect on weed grasses (evaluation scheme number), Digitaria", "setting": "Digitaria; 0.15 kg/hectare", "result": "7 (65.0 to <75.0)"}, {"measurement": "Effect on weed grasses (evaluation scheme number), Digitaria", "setting": "Digitaria; 0.62 kg/hectare", "result": "4 (90.0 to <95.0)"}, {"measurement": "Effect on weed grasses (evaluation scheme number), Digitaria", "setting": "Digitaria; 2.5 kg/hectare", "result": "1 (100)"}, {"measurement": "Effect on weed grasses (evaluation scheme number), Echinochloa", "setting": "Echinochloa; 0.15 kg/hectare", "result": "1 (100)"}, {"measurement": "Effect on weed grasses (evaluation scheme number), Echinochloa", "setting": "Echinochloa; 0.62 kg/hectare", "result": "1 (100)"}, {"measurement": "Effect on weed grasses (evaluation scheme number), Echinochloa", "setting": "Echinochloa; 2.5 kg/hectare", "result": "1 (100)"}, {"measurement": "Effect on weed grasses (evaluation scheme number), Setaria", "setting": "Setaria; 0.15 kg/hectare", "result": "3 (95.0 to <.97.5)"}, {"measurement": "Effect on weed grasses (evaluation scheme number), Setaria", "setting": "Setaria; 0.62 kg/hectare", "result": "1 (100)"}, {"measurement": "Effect on weed grasses (evaluation scheme number), Setaria", "setting": "Setaria; 2.5 kg/hectare", "result": "1 (100)"}, {"measurement": "Effect on weed grasses (evaluation scheme number), Lolium", "setting": "Lolium; 0.15 kg/hectare", "result": "5 (85.0 to <90.0)"}, {"measurement": "Effect on weed grasses (evaluation scheme number), Lolium", "setting": "Lolium; 0.62 kg/hectare", "result": "4 (90.0 to <95.0)"}, {"measurement": "Effect on weed grasses (evaluation scheme number), Lolium", "setting": "Lolium; 2.5 kg/hectare", "result": "3 (95.0 to <.97.5)"}, {"measurement": "effect in pre-emergence treatment compared with comparative compound A", "setting": "weed grasses", "result": "Analogous results"}, {"measurement": "effect (number) on wild oat", "setting": "wild oat", "result": "1 (100)"}, {"measurement": "effect (number) on barnyard grass", "setting": "barnyard grass", "result": "1 (100)"}]}
{"smiles": "CCCCOC(=O)C(C)Oc1ccc(Oc2ccc(Br)cc2Cl)cc1", "note": "(stereo not drawn) [Compound 1d, 4-(2'-chloro-4'-bromophenoxy)-α-phenoxy-propionic acid n-butyl ester]", "values": [{"measurement": "Effect on weed grasses (evaluation scheme number), Alopecurus", "setting": "Alopecurus; 0.15 kg/hectare", "result": "3 (95.0 to <.97.5)"}, {"measurement": "Effect on weed grasses (evaluation scheme number), Alopecurus", "setting": "Alopecurus; 0.62 kg/hectare", "result": "2 (97.5 to <100)"}, {"measurement": "Effect on weed grasses (evaluation scheme number), Alopecurus", "setting": "Alopecurus; 2.5 kg/hectare", "result": "1 (100)"}, {"measurement": "Effect on weed grasses (evaluation scheme number), Digitaria", "setting": "Digitaria; 0.15 kg/hectare", "result": "6 (75.0 to <85.0)"}, {"measurement": "Effect on weed grasses (evaluation scheme number), Digitaria", "setting": "Digitaria; 0.62 kg/hectare", "result": "1 (100)"}, {"measurement": "Effect on weed grasses (evaluation scheme number), Digitaria", "setting": "Digitaria; 2.5 kg/hectare", "result": "1 (100)"}, {"measurement": "Effect on weed grasses (evaluation scheme number), Echinochloa", "setting": "Echinochloa; 0.15 kg/hectare", "result": "2 (97.5 to <100)"}, {"measurement": "Effect on weed grasses (evaluation scheme number), Echinochloa", "setting": "Echinochloa; 0.62 kg/hectare", "result": "1 (100)"}, {"measurement": "Effect on weed grasses (evaluation scheme number), Echinochloa", "setting": "Echinochloa; 2.5 kg/hectare", "result": "1 (100)"}, {"measurement": "Effect on weed grasses (evaluation scheme number), Setaria", "setting": "Setaria; 0.15 kg/hectare", "result": "2 (97.5 to <100)"}, {"measurement": "Effect on weed grasses (evaluation scheme number), Setaria", "setting": "Setaria; 0.62 kg/hectare", "result": "1 (100)"}, {"measurement": "Effect on weed grasses (evaluation scheme number), Setaria", "setting": "Setaria; 2.5 kg/hectare", "result": "1 (100)"}, {"measurement": "Effect on weed grasses (evaluation scheme number), Lolium", "setting": "Lolium; 0.15 kg/hectare", "result": "6 (75.0 to <85.0)"}, {"measurement": "Effect on weed grasses (evaluation scheme number), Lolium", "setting": "Lolium; 0.62 kg/hectare", "result": "4 (90.0 to <95.0)"}, {"measurement": "Effect on weed grasses (evaluation scheme number), Lolium", "setting": "Lolium; 2.5 kg/hectare", "result": "2 (97.5 to <100)"}, {"measurement": "effect in pre-emergence treatment compared with comparative compound A", "setting": "weed grasses", "result": "Analogous results"}, {"measurement": "effect (number) on wild oat", "setting": "wild oat", "result": "1 (100)"}]}
{"smiles": "CC(C)COC(=O)C(C)Oc1ccc(Oc2ccc(Br)cc2Cl)cc1", "note": "(stereo not drawn) [Compound 1e, 4-(2'-chloro-4'-bromophenoxy)-α-phenoxy-propionic acid isobutyl ester]", "values": [{"measurement": "effect (number) on wild oat", "setting": "wild oat", "result": "2 (97.5 to <100)"}]}
{"smiles": "CC(Oc1ccc(Oc2ccc(Br)cc2Cl)cc1)C(=O)O", "note": "(stereo not drawn) [Compound 2b]", "values": [{"measurement": "effect (number) on barnyard grass", "setting": "barnyard grass", "result": "3 (95.0 to <.97.5)"}]}
{"smiles": "CC(Oc1ccc(Oc2ccc(Br)cc2Cl)cc1)C(=O)O", "note": "(stereo not drawn) [Compound 2c]", "values": [{"measurement": "effect (number) on barnyard grass", "setting": "barnyard grass", "result": "1 (100)"}]}
{"smiles": "CC(Oc1ccc(Oc2ccc(Br)cc2Cl)cc1)C(=O)O", "note": "(stereo not drawn) [Compound 2d]", "values": [{"measurement": "effect (number) on barnyard grass", "setting": "barnyard grass", "result": "1 (100)"}]}
{"smiles": "CC(Oc1ccc(Oc2ccc(Br)cc2Cl)cc1)C(=O)O", "note": "(stereo not drawn) [Compound 2e]", "values": [{"measurement": "effect (number) on barnyard grass", "setting": "barnyard grass", "result": "4 (90.0 to <95.0)"}]}
